# pIC50: −log10 of the molar value.
# Tests used:
# Assay type in all cases: cell-based
# D3 DAR [1] = molecular target: T1, D3 DAR (Homo sapiens, UniProt P35462); test: Go BRET activation assay, D3 DAR; conditions: EC80 DA (30 nM); for Emax: 5 min, read-out: D3 Go BRET Imax
# Procedure: Briefly, HEK293T cells transiently expressing either the D2 DAR or D3 DAR and GαoA-Rluc8, untagged-β1, and mVenus-γ2 were harvested with EBSS, plated in 96-well white plates at 20,000 cells/well in DPBS and incubated at RT for 45 min. […] BRET signal was determined by quantifying and calculating the ratio of the light emitted by mVenus (525 nm) over that emitted by RLuc8 (485 nm) using a PHERAstar FSX Microplate Reader (BMG Labtech).
# D3 DAR [2] = molecular target: T1, D3 DAR; test: DiscoverX D3 DAR β-arrestin recruitment assay; parameters: host or cells: CHO; conditions: for pIC50: EC80 concentration of DA (30 nM), read-out: D3 DAR IC50; for Emax / D3 DAR Imax: Imax=maximum inhibition, EC80 DA (30 nM)
# Source text: A D3 DAR β-arrestin cell line from DiscoverX (Fremont, CA) was used as described in the protocol below (Table 2). A CHO cell line engineered to overexpress the D3 DAR fused with a small 42-amino acid fragment of β-galactosidase called ProLink™ and a fusion protein consisting of β-arrestin and a larger N-terminal deletion mutant of β-galactosidase was used (DiscoverX catalogue number 93-0579C2). When the D3 DAR is activated by dopamine, it stimulates binding of β-arrestin to ProLink-tagged D3 DARs, and the two complementary parts of β-galactosidase form a functional enzyme. When substrate (PathHunter® Detection reagent, DiscoverX 93-0001) is added, β-galactosidase hydrolyzes it and generates a chemiluminescent signal.
# D2 DAR = D2 DAR (Homo sapiens, UniProt P14416); test: DiscoverX D2 DAR β-arrestin recruitment assay; parameters: host or cells: CHO; conditions: EC80 concentration of DA (1 μM)
# Source text: For a secondary-screen and selectivity assays, DAR PathHunter®-arrestin GPCR cell lines from DiscoverX (Fremont, CA) were used. In the D2 DAR PathHunter®-arrestin GPCR cell line, the D2 DAR is overexpressed and fused with a small 42-amino acid fragment of β-galactosidase called ProLink™ on a CHO cellular background expressing a fusion protein of β-arrestin and a larger N-terminal deletion mutant of β-galactosidase (“enzyme acceptor”). When the D2 DAR is activated by dopamine, it stimulates binding of β-arrestin to the ProLink-tagged DAR and the two complementary parts of β-galactosidase form a functional enzyme. When substrate (PathHunter™ Detection reagent) is added, β-galactosidase hydrolyzes it and generates a chemiluminescent signal.
# Chain of D2 DAR (P14416 whole entry, the tested form may be a part): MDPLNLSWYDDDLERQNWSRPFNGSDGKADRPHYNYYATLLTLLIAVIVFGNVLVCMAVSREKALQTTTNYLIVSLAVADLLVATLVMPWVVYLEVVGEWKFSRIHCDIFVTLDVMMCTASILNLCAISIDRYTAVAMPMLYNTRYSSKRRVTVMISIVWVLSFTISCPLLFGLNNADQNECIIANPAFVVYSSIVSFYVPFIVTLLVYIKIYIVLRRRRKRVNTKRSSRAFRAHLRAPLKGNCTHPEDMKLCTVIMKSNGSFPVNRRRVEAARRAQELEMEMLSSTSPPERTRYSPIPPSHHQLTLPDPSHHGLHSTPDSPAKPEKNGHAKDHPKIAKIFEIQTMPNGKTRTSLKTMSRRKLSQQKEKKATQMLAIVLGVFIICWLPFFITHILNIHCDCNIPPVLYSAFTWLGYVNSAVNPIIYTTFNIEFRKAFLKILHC
# T1 sequence (P35462 whole entry): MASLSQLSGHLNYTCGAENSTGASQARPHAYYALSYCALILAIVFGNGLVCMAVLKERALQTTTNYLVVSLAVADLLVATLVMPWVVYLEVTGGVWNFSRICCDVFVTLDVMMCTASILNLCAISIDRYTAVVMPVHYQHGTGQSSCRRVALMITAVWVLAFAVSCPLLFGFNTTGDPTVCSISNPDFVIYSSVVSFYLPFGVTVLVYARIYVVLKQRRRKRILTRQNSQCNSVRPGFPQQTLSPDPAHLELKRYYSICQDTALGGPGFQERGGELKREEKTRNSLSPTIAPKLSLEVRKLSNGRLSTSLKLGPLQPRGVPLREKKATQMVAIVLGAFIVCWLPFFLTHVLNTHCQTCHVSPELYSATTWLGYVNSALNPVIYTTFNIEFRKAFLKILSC
SMILES,pIC50 (D3 DAR [1]),pIC50 (D3 DAR [2]),Emax (D3 DAR [2]) [%],D2 DAR Imax (D2 DAR),pIC50 (D2 DAR),Emax (D3 DAR [1]) [%],D3 Go BRET Imax (D3 DAR [1]),D3 DAR Imax (D3 DAR [2])
Cc1ccc(NS(=O)(=O)c2c(C)[nH]c(C)c2C(=O)N2CCCC2)cc1 [compound 10],< 4.30,4.30 to 5.00,80 to 100,NA (“NA” indicates not active),< 4.00,,,
Cc1[nH]c(C)c(S(=O)(=O)Nc2ccc(C(C)C)cc2)c1C(=O)N1CCCC1 [compound 4],5.00 to 6.00,4.30 to 5.00,80 to 100,NA (“NA” indicates not active),< 4.00,> 100,,
Cc1ccc(CNS(=O)(=O)c2c(C)[nH]c(C)c2C(=O)N2CCCC2)cc1Cl [compound 9],< 4.30,4.00 to 4.30,,NA (“NA” indicates not active),< 4.00,,NA (NA means not active),Curve Incomplete
Cc1ccc(NS(=O)(=O)c2c(C)[nH]c(C)c2C(=O)N2CCCC2)cc1C [compound 12],< 4.30,4.30 to 5.00,80 to 100,NA (“NA” indicates not active),< 4.00,,,
Cc1[nH]c(C)c(S(=O)(=O)Nc2cccc(Cl)c2)c1C(=O)N1CCCC1 [compound 14],5.00 to 6.00,4.30 to 5.00,80 to 100,NA (“NA” indicates not active),< 4.00,> 100,,
CCc1ccc(NS(=O)(=O)c2c(C)[nH]c(C)c2C(=O)N2CCCC2)cc1Cl [compound 8],5.00 to 6.00,4.30 to 5.00,80 to 100,NA (“NA” indicates not active),< 4.00,80 to 100,,
Cc1[nH]c(C)c(S(=O)(=O)Nc2ccc(Cl)c(C(F)(F)F)c2)c1C(=O)N1CCCC1 [compound 7],5.00 to 6.00,> 5.00,80 to 100,NA (“NA” indicates not active),< 4.00,> 100,,

# The remaining lines, values ahead:
pIC50 (D3 DAR [1]),pIC50 (D3 DAR [2]),Emax (D3 DAR [2]) [%],D2 DAR Imax (D2 DAR),pIC50 (D2 DAR),Emax (D3 DAR [1]) [%],D3 Go BRET Imax (D3 DAR [1]),D3 DAR Imax (D3 DAR [2]),SMILES
4.30 to 5.00,4.30 to 5.00,80 to 100,NA (“NA” indicates not active),< 4.00,> 100,,,CCN(C)C(=O)c1c(C)[nH]c(C)c1S(=O)(=O)Nc1ccc(C(F)(F)F)c(Cl)c1 [compound 29]
5.00 to 6.00,4.30 to 5.00,80 to 100,NA (“NA” indicates not active),< 4.00,> 100,,,"Cc1[nH]c(C)c(S(=O)(=O)Nc2ccc(C(F)(F)F)c(Cl)c2)c1C(=O)N1CC(F)(F)C(F)(F)C1 [compound 27, N-(3-chloro-4-(trifluoromethyl)phenyl)-2,5-dimethyl-4-(3,3,4,4-tetrafluoropyrrolidine-1-carbonyl)-1H-pyrrole-3-sulfonamide]"
4.30 to 5.00,4.30 to 5.00,80 to 100,NA (“NA” indicates not active),< 4.00,> 100,,,Cc1[nH]c(C)c(S(=O)(=O)Nc2ccc(Cl)cc2C(F)(F)F)c1C(=O)N1CCC(F)(F)C1 [compound 42]
5.00 to 6.00,> 5.00,80 to 100,NA (“NA” indicates not active),< 4.00,> 100,,,[2H]C1([2H])CCC([2H])([2H])N1C(=O)c1c(C)[nH]c(C)c1S(=O)(=O)Nc1ccc(C(F)(F)F)c(Cl)c1 [compound 23]
4.30 to 5.00,4.00 to 4.30,,NA (“NA” indicates not active),< 4.00,> 100,,Curve Incomplete,"Cc1[nH]c(C)c(S(=O)(=O)Nc2ccc(C(F)(F)F)c(Cl)c2)c1C(=O)O [compound 22, 4-(N-(3-chloro-4-(trifluoromethyl)phenyl)sulfamoyl)-2,5-dimethyl-1H-pyrrole-3-carboxylic acid]"
5.00 to 6.00,> 5.00,80 to 100,NA (“NA” indicates not active),< 4.00,> 100,,,Cc1ccc(NS(=O)(=O)c2c(C)[nH]c(C(F)(F)F)c2C(=O)N2CCCC2)cc1Cl [compound 38]
